“Also recorded” adds a separate entry of the source.
System: IGF-1 secretion in the skin
Assay: IGF-1 concentration in the skin after application of essential oil and/or AMP (Experimental Example 1)
Assay type: in vivo, hairless mice (Hos: HR-1)
Conditions: hairless mice, 400 μl on back skin (3 cm×5 cm), 30 minutes after the application; FIG. 1a-1c
Description: In order to examine how the effect of essential oils on the amount of IGF-1 secretion in the skin is affected by AMP, the following compositions containing an essential oil and AMP (Examples 1 to 3 and Comparative Examples 1 to 5) were prepared by a standard method. The pH of each composition was adjusted with NaOH such that the pH ranged from 6.5 to 7.0.
400 μl of a test solution was applied to the skin on the back (3 cm×5 cm) of hairless mice (Hos: HR-1, Japan SLC, Inc., female, 6 to 8 weeks age). 30 minutes after the application, the skin was extracted and frozen-crushed. Then, the IGF-1 concentration in the skin was measured using Quantikine (registered trademark) Mouse IGF-1 Immunoassay (R&D Systems, Inc.).
The composition shown in Table 1 was used as a test solution.
The secreted IGF-1 concentration was measured according to the method described in Experiment 1-1. The composition shown in Table 1 above was used as a test solution.

Nc1ncnc2c1ncn2[C@@H]1O[C@H](COP(=O)(O)O)[C@@H](O)[C@H]1O [AMP, adenosine-5′-monophosphate]
stimulatory effect on IGF-1 secretion (IGF-1 concentration in the skin): did not produce a stimulatory effect on IGF-1 secretion when used alone; also recorded: neither AMP or Scotch pine needle oil stimulated IGF-1 secretion when used alone; also recorded: did not produce a sufficient stimulatory effect on IGF-1 secretion

Reference: US20110081429A1, “COMPOSITION FOR EXTERNAL USE” (priority 2008, published 2011)
